Measurements reported in PubChem BioAssay (NCI).
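96-well plates; 48 h exposure; 5 concentrations. Endpoints by linear interpolation between flanking doses. Not reached: highest tested concentration assigned. At the GI50, growth is halved. The concentration for full growth arrest is given as TGI.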

Experiments:
Assay in all cases: NCI tumour cell line growth inhibition, 48 h
[1] = test system: 786-0 renal
[2] = test system: A498 renal
[3] = test system: A549 NSCLC
[4] = test system: ACHN renal
[5] = test system: BT-549 breast
[6] = test system: CAKI-1 renal
[7] = test system: CCRF-CEM leukemia
[8] = test system: COLO 205 colon
[9] = test system: DU-145 prostate
[10] = test system: EKVX NSCLC
[11] = test system: HCC-2998 colon
[12] = test system: HCT-116 colon
[13] = test system: HCT-15 colon
[14] = test system: HL-60(TB) leukemia
[15] = test system: HOP-62 NSCLC
[16] = test system: HOP-92 NSCLC
[17] = test system: HS 578T breast
[18] = test system: HT29 colon
[19] = test system: IGROV1 ovarian
[20] = test system: K-562 leukemia
[21] = test system: KM12 colon
[22] = test system: LOX IMVI melanoma
[23] = test system: M14 melanoma
[24] = test system: MALME-3M melanoma
[25] = test system: MCF7 breast
[26] = test system: MDA-MB-231 breast
[27] = test system: MDA-MB-435
[28] = test system: MDA-MB-468 breast
[29] = test system: MOLT-4 leukemia
[30] = test system: NCI-H226 lung
[31] = test system: NCI-H23 lung
[32] = test system: NCI-H460 lung
[33] = test system: NCI-H522 lung
[34] = test system: OVCAR-3 ovarian
[35] = test system: OVCAR-4 ovarian
[36] = test system: OVCAR-5 ovarian
[37] = test system: OVCAR-8 ovarian
[38] = test system: PC-3 prostate
[39] = test system: RPMI-8226 leukemia
[40] = test system: RXF 393 renal
[41] = test system: SF-268 CNS
[42] = test system: SF-295 CNS
[43] = test system: SF-539 CNS
[44] = test system: SK-MEL-2 melanoma
[45] = test system: SK-MEL-28 melanoma
[46] = test system: SK-MEL-5 melanoma
[47] = test system: SK-OV-3 ovarian
[48] = test system: SN12C renal
[49] = test system: SNB-19 CNS
[50] = test system: SNB-75 CNS
[51] = test system: SR leukemia
[52] = test system: SW-620 colon
[53] = test system: T-47D breast
[54] = test system: TK-10 renal
[55] = test system: U251 CNS
[56] = test system: UACC-257 melanoma
[57] = test system: UACC-62 melanoma
[58] = test system: UO-31 renal

SMILES: CC(C)N=C([Se])NC(=O)c1cccs1
- GI50 [1]: 17.7 µM
- TGI [1]: 31.9 µM
- GI50 [2]: 6.55 µM
- TGI [2]: 59.2 µM
- GI50 [3]: 4.3 µM
- TGI [3]: 33.1 µM
- GI50 [4]: 18 µM
- TGI [4]: 37.4 µM
- GI50 [5]: 15.4 µM
- TGI [5]: 31 µM
- GI50 [6]: 17 µM
- TGI [6]: 32.6 µM
- GI50 [7]: 17.4 µM
- TGI [7]: 50.6 µM
- GI50 [8]: 16.8 µM
- TGI [8]: 31.7 µM
- GI50 [9]: 19.3 µM
- TGI [9]: 40 µM
- GI50 [10]: 7.45 µM
- TGI [10]: 20.8 µM
- GI50 [11]: 5.8 µM
- TGI [11]: 18.4 µM
- GI50 [12]: 4.78 µM
- TGI [12]: 18.4 µM
- GI50 [13]: 18.4 µM
- TGI [13]: 37.5 µM
- GI50 [14]: 20.3 µM
- TGI [14]: 55.6 µM
- GI50 [15]: 4.11 µM
- TGI [15]: 19.1 µM
- GI50 [16]: 22.1 µM
- TGI [16]: 51.6 µM
- GI50 [17]: 7.16 µM
- TGI [17]: 32 µM
- GI50 [18]: 18.4 µM
- TGI [18]: 46.6 µM
- GI50 [19]: 8.04 µM
- TGI [19]: 21.1 µM
- GI50 [20]: 28.4 µM
- TGI [20]: 87.1 µM
- GI50 [21]: 12.1 µM
- TGI [21]: 26.2 µM
- GI50 [22]: 13.2 µM
- TGI [22]: 27.2 µM
- GI50 [23]: 12.7 µM
- TGI [23]: 26.6 µM
- GI50 [24]: 17 µM
- TGI [24]: 33.2 µM
- GI50 [25]: 6.58 µM
- TGI [25]: 35.2 µM
- GI50 [26]: 17.6 µM
- TGI [26]: 36.1 µM
- GI50 [27]: 16.3 µM
- TGI [27]: 33 µM
- GI50 [28]: 16.5 µM
- TGI [28]: 34.6 µM
- GI50 [29]: 20.8 µM
- TGI [29]: 58.1 µM
- GI50 [30]: 16.3 µM
- TGI [30]: 35.3 µM
- GI50 [31]: 10.2 µM
- TGI [31]: 23.8 µM
- GI50 [32]: 3.37 µM
- TGI [32]: 19 µM
- GI50 [33]: 14.4 µM
- TGI [33]: 28.1 µM
- GI50 [34]: 14.9 µM
- TGI [34]: 28.6 µM
- GI50 [35]: 16.8 µM
- TGI [35]: 36 µM
- GI50 [36]: 16 µM
- TGI [36]: 31.4 µM
- GI50 [37]: 15.6 µM
- TGI [37]: 29.5 µM
- GI50 [38]: 4.06 µM
- TGI [38]: 16.6 µM
- GI50 [39]: 19.9 µM
- TGI [39]: 56.4 µM
- GI50 [40]: 12.2 µM
- TGI [40]: 24.8 µM
- GI50 [41]: 19.9 µM
- TGI [41]: 57.1 µM
- GI50 [42]: 2.18 µM
- TGI [42]: 6.77 µM
- GI50 [43]: 13.2 µM
- TGI [43]: 26.1 µM
- GI50 [44]: 15.7 µM
- TGI [44]: 34.5 µM
- GI50 [45]: 16.9 µM
- TGI [45]: 35.1 µM
- GI50 [46]: 2.82 µM
- TGI [46]: 14.3 µM
- GI50 [47]: 16.2 µM
- TGI [47]: 30.5 µM
- GI50 [48]: 10.9 µM
- TGI [48]: 23.9 µM
- GI50 [49]: 4.82 µM
- TGI [49]: 20 µM
- GI50 [50]: 5.51 µM
- TGI [50]: 21.3 µM
- GI50 [51]: 12.6 µM
- TGI [51]: 49.9 µM
- GI50 [52]: 16.7 µM
- TGI [52]: 33 µM
- GI50 [53]: 19.4 µM
- TGI [53]: 48.8 µM
- GI50 [54]: 16 µM
- TGI [54]: 29.5 µM
- GI50 [55]: 7.84 µM
- TGI [55]: 21.5 µM
- GI50 [56]: 15.5 µM
- TGI [56]: 29.8 µM
- GI50 [57]: 14.1 µM
- TGI [57]: 28.7 µM
- GI50 [58]: 13.8 µM
- TGI [58]: 26.7 µM
